MIC data for one compound are collected here from article PMC5469811, “Identification of GXXXXG motif in Chrysophsin-1 and its implication in the design of analogs with cell-selective antimicrobial and anti-endotoxin activities” (Scientific Reports, 2017).

Molecules are shown by their SMILES. Values after ≈ are worked out from the molar mass of the structure shown. Residues, ends and D or L forms follow the SMILES beside them.

Experiment in all cases: microbe, parasite or virus in culture
Format in all cases: cell-based

In test [1] the test system is Staphylococcus aureus (ATCC 25923). Particulars: ATCC 25923; read-out: Minimum inhibitory concentration (MIC). A digest of the protocol:
(§1)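 Values are averages of three independent MIC determinations. Each came from a two-fold serial dilution series of compound against every strain.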

Test [2] concerns Pseudomonas aeruginosa (ATCC BAA-427). Particulars: ATCC BAA-427; read-out: Minimum inhibitory concentration (MIC). A digest of the protocol:
as §1

The subject of test [3] is Staphylococcus aureus (ATCC 33592) Methicillin resistant Genatmicin resistant. Particulars: ATCC 33592; read-out: Minimum inhibitory concentration (MIC). In a few lines: as §1
Test [4] deals with Escherichia coli (ATCC 9637). The following applies: ATCC 9637; read-out: Minimum inhibitory concentration (MIC). A digest of the protocol:
as §1

The subject of test [5] is Staphylococcus aureus (ATCC 29213). The following applies: ATCC 29213; read-out: Minimum inhibitory concentration (MIC). In a few lines: as §1
The subject of test [6] is Escherichia coli (ATCC 25922). The following applies: ATCC 25922; read-out: Minimum inhibitory concentration (MIC). In a few lines:
as §1

Test [7] deals with Klebsiella pneumoniae (ATCC 27736). Particulars: ATCC 27736; read-out: Minimum inhibitory concentration (MIC). In a few lines:
as §1

Test [8] deals with Bacillus subtilis (ATCC 6633). The following applies: ATCC 6633; read-out: Minimum inhibitory concentration (MIC). In a few lines: as §1
Test [9] has as its system Staphylococcus aureus (ATCC 700699 MRSA). The following applies: ATCC 700699; read-out: Minimum inhibitory concentration (MIC). A digest of the protocol: as §1
The subject of test [10] is Staphylococcus aureus (ATCC 700698 MRSA). The following applies: ATCC 700698; read-out: Minimum inhibitory concentration (MIC). A digest of the protocol:
as §1

Take `CC[C@H](C)[C@H](NC(=O)[C@H](C)NC(=O)[C@H](CCCCN)NC(=O)[C@@H]1CCCN1C(=O)[C@H](C)NC(=O)[C@H](Cc1c[nH]cn1)NC(=O)[C@@H](NC(=O)[C@H](C)NC(=O)CNC(=O)[C@H](CCCCN)NC(=O)[C@@H](NC(=O)[C@H](CC(C)C)NC(=O)[C@H](Cc1c[nH]c2ccccc12)NC(=O)CNC(=O)[C@H](Cc1ccccc1)NC(=O)[C@@H](N)Cc1ccccc1)[C@@H](C)CC)[C@@H](C)CC)C(=O)N[C@@H](Cc1c[nH]cn1)C(=O)NCC(=O)N[C@@H](CC(C)C)C(=O)N[C@H](C(=O)N[C@@H](Cc1c[nH]cn1)C(=O)N[C@@H](CCCNC(=N)N)C(=O)N[C@@H](CCCNC(=N)N)C(=O)N[C@@H](CCCNC(=N)N)C(=O)N[C@@H](Cc1c[nH]cn1)C(N)=O)[C@@H](C)CC` [Peptide G13P-Chr-1] (H-FFGWLIKGAIHAPKAIHGLIHRRRH-NH2): the MIC worked out at 3 µM (≈ 8.79 µg/mL) in [1]; 6.8 µM (≈ 19.9 µg/mL) in [2]; 1.6 µM (≈ 4.69 µg/mL) in test [3]; 3 µM (≈ 8.79 µg/mL) in test [4]; 1.6 µM (≈ 4.69 µg/mL) in test [5]; 5 µM (≈ 14.7 µg/mL) in test [6]. Also, the MIC in [7] came out at 6.8 µM (≈ 19.9 µg/mL); in [8], 3 µM (≈ 8.79 µg/mL); in test [9], 1.6 µM (≈ 4.69 µg/mL); in test [10] it was 3 µM (≈ 8.79 µg/mL).
